Source: ChEMBL document CHEMBL1201862, “PubChem BioAssay data set” (2004)
Active and inactive are the calls of the source. Cut-off read from the data, not from the text of the source, for most assays here: actives have a measured IC50 and inactives only a lower limit.

Columns and labels:
[1] = target: Voltage-dependent T-type calcium channel subunit alpha-1H (Homo sapiens, UniProt O95180); experiment: human CACNA1H calcium influx blockade – cell-based, synthetic library set 1, calcium flux (AID 493022); format: functional
Chain of Voltage-dependent T-type calcium channel subunit alpha-1H (O95180 whole entry): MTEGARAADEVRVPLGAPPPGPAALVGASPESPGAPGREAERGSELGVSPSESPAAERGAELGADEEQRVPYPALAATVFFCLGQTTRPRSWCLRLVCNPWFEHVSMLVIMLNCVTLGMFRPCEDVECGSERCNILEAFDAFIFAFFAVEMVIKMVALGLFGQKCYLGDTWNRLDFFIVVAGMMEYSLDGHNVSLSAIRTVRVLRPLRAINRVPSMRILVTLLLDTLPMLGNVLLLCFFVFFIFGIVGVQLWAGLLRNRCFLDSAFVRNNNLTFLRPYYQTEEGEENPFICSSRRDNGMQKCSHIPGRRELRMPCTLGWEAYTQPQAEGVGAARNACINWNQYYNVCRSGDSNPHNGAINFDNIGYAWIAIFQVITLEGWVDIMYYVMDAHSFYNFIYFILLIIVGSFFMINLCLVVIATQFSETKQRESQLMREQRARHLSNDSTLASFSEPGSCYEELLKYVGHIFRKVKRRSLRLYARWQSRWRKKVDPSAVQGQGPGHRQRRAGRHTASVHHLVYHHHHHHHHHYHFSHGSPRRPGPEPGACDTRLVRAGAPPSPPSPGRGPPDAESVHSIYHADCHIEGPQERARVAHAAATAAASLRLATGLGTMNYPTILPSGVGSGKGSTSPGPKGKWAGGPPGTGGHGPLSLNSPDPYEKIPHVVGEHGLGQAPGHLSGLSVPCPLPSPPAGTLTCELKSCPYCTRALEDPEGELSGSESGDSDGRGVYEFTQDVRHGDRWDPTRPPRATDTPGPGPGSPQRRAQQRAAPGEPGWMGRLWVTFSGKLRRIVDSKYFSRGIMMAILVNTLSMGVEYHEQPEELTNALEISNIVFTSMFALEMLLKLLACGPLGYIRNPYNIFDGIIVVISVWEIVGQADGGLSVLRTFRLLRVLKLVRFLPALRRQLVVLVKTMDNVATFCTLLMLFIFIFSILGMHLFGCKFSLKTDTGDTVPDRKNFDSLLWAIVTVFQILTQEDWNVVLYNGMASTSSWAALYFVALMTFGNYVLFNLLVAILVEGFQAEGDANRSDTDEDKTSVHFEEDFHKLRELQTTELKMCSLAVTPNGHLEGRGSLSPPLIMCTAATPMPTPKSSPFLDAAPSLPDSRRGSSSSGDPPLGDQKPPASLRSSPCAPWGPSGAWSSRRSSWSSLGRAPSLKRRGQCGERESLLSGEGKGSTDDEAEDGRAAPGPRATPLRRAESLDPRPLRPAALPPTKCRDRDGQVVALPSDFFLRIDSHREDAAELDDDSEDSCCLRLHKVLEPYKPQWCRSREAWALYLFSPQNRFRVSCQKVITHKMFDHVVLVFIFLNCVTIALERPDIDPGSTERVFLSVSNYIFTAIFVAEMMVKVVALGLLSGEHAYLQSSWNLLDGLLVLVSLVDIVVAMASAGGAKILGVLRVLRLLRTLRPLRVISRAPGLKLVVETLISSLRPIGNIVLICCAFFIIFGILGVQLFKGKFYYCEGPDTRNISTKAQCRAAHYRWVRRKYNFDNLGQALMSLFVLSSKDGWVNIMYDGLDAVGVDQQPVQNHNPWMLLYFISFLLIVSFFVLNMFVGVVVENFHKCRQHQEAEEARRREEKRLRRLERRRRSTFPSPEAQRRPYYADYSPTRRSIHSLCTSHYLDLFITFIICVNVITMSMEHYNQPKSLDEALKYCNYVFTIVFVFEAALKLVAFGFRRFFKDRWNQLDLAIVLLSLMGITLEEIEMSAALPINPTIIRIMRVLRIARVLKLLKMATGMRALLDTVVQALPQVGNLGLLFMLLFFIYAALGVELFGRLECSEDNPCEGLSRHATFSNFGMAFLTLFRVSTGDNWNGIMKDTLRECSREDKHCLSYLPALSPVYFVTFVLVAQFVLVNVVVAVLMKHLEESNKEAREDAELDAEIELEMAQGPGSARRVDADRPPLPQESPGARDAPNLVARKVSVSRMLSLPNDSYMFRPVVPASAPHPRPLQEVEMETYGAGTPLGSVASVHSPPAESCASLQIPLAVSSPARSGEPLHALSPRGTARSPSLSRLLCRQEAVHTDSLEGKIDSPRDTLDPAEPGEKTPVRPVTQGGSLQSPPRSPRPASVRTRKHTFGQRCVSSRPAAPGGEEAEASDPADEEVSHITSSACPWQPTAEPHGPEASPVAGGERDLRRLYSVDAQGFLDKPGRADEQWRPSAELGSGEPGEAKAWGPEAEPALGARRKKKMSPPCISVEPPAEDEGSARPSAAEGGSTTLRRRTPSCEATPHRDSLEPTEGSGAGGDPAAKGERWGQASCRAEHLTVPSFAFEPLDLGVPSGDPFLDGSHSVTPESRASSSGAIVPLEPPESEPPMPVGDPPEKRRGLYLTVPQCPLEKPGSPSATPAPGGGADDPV

[2] = target: T1, Short transient receptor potential channel 4 (Mus musculus, UniProt Q9QUQ5); experiment: potentiation of DAMGO-evoked TRPC4 calcium signal – cell-based, HEK293 TRPC4/mu-opioid, Fluo-4 calcium, EC20 DAMGO, dose response (AID 434941); format: functional
T1 sequence (Q9QUQ5 whole entry): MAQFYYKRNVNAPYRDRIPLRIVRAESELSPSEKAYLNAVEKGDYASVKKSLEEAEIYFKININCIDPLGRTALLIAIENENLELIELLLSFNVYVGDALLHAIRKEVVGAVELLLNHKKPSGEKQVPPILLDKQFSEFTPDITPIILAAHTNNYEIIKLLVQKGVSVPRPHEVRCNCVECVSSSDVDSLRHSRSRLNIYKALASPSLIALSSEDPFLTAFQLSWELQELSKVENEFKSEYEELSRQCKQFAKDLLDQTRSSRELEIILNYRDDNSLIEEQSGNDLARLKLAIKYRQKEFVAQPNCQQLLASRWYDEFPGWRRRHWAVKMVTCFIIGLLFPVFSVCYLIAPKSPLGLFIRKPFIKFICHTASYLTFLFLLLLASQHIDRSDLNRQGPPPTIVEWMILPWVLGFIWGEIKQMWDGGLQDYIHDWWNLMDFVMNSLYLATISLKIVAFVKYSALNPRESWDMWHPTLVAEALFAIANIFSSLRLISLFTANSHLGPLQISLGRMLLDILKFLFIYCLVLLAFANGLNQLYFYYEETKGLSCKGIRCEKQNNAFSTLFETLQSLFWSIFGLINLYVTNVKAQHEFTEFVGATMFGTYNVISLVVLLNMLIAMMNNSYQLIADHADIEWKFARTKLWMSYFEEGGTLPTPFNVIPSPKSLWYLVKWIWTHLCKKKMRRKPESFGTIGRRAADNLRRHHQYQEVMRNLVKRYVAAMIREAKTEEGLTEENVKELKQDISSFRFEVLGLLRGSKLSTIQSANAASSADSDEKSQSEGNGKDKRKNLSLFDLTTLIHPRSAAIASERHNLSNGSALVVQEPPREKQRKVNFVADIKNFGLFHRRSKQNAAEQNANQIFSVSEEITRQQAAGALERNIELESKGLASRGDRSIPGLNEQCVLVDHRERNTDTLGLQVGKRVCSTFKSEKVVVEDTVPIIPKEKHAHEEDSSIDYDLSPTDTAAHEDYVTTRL

[3] = target: T2, Dual specificity protein phosphatase 3 (Homo sapiens, UniProt P51452); experiment: SAR VHR1 absorbance Assay for In Vitro dose response studies. [Related pubchem assays (depositor defined):AID1654, AID1661, AID1878, AID1992, AID2004]
T2 sequence (P51452 whole entry): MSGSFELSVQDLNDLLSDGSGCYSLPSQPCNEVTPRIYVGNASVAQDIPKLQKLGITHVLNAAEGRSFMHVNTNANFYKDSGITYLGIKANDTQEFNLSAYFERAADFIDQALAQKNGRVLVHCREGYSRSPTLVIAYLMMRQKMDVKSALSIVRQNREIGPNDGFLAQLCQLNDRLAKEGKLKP

[4] = target: T2, Dual specificity protein phosphatase 3; experiment: SAR VHR1 Fluorescent Assay for In Vitro dose response studies. [Related pubchem assays (depositor defined):AID1654, AID1661, AID1878, AID1992, AID2004, AID2070, AID2085]; format: functional
[5] = target: T3, Tyrosine-protein phosphatase non-receptor type 7 (Homo sapiens, UniProt P35236); experiment: redox-active compounds inhibiting HePTP phosphatase – biochemical, fluorescence, mechanism study (AID 2068); format: functional
T3 sequence (P35236 whole entry): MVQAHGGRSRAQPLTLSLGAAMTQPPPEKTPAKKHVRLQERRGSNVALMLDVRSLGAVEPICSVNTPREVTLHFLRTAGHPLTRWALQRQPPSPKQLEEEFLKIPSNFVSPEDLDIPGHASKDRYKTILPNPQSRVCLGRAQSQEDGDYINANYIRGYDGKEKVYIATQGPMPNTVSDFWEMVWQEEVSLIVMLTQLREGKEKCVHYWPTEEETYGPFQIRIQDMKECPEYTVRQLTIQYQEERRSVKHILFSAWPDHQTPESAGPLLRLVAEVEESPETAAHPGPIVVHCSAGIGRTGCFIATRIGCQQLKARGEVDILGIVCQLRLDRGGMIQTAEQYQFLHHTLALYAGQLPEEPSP

[6] = target: T4, Dual specificity protein phosphatase 6 (Rattus norvegicus, UniProt Q64346); format: functional;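 note: confirmatory in vitro dose-response testing of MKP-3 inhibition; recombinant His-tagged MKP-3 made in E. coli BL21 with OMFP substrate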
T4 sequence (Q64346 whole entry): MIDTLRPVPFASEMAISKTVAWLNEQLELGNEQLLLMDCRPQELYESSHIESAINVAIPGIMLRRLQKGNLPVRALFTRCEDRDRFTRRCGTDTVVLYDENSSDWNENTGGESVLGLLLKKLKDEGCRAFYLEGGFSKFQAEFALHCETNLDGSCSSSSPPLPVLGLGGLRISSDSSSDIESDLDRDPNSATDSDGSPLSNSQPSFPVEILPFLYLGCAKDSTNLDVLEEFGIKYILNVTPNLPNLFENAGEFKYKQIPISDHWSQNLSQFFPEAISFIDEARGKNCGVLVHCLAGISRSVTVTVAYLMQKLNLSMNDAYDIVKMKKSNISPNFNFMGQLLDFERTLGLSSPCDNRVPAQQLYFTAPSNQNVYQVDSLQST

[7] = target: DNA dC->dU-editing enzyme APOBEC-3A (Homo sapiens, UniProt P31941); experiment: A3A deaminase inhibition for selectivity – biochemical, dose response (AID 504722); format: functional
Chain of DNA dC->dU-editing enzyme APOBEC-3A (P31941 whole entry): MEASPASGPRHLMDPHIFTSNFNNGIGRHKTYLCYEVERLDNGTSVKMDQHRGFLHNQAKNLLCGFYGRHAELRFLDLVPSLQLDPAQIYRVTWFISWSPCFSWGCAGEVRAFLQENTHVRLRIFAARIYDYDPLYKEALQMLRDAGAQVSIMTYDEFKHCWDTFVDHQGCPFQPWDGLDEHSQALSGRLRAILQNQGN

[8] = target: DNA dC->dU-editing enzyme APOBEC-3G (Homo sapiens, UniProt Q9HC16); experiment: Dose Response confirmation of small molecule APOBEC3G DNA Deaminase Inhibitors via a fluorescence-based single-stranded DNA deaminase assay. [Related pubchem assays (depositor defined):AID493012, AID493028]; format: functional
Chain of DNA dC->dU-editing enzyme APOBEC-3G (Q9HC16 whole entry): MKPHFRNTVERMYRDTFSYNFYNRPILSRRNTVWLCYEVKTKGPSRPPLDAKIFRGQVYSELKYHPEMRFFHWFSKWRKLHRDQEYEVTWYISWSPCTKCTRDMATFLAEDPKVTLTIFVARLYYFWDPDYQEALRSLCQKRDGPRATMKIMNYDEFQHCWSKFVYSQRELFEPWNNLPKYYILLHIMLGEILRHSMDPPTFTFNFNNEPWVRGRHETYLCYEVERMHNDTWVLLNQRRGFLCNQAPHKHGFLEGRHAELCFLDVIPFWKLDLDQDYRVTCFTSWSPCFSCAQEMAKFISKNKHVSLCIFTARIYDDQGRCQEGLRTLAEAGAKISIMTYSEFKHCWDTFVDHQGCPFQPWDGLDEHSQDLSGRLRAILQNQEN

O=C(COc1ccc(F)cc1)Nc1nnc(-c2ccc3ccccc3c2)o1
EC50 [1]: 3.5 µM (active)

CC1Cc2ccccc2N1C(=O)CSc1nc2c(c(=O)n(C)c(=O)n2C)n1Cc1ccc(F)cc1 (stereo not drawn)
EC50 [2]: 1.33 µM (active)

S=C(c1cn(CCOc2ccccc2)c2ccccc12)N1CCCCC1
IC50 [3]: > 100 µM (inactive)
IC50 [4]: > 100 µM (inactive)
IC50 [5]: 31.7 µM (active)
IC50 [6]: > 100 µM (inactive)

Cc1ccc(-c2nnc(S)n2/N=C\c2ccco2)cc1
IC50 [7]: > 100 µM (inactive)
IC50 [8]: 2.86 µM (active)
